Columns and labels:
[1] = test system: AsPo1; assay: Effect of PDTC on cell proliferation (IC50); format: cell-based; conditions: Pancreatic carcinoma cells, read-out: IC50 required to inhibit cellular proliferation or induce apoptosis
Description: (§1) The effect of PDTC on cellular proliferation or apoptosis was evaluated in a number of normal and cancer cell lines. The IC50 was measured as the concentration of PDTC that inhibited cellular proliferation.

[2] = test system: BxPc3; assay: Effect of PDTC on cell proliferation (IC50); format: cell-based; conditions: Homo sapiens, BXPC-3, Pancreatic carcinoma cells, read-out: IC50 required to inhibit cellular proliferation or induce apoptosis
Description: as §1

[3] = test system: Hs746T; assay: Effect of PDTC on cell proliferation (IC50); format: cell-based; conditions: Homo sapiens, Gastric carcinoma cells, read-out: IC50 required to inhibit cellular proliferation or induce apoptosis
Description: as §1

[4] = test system: Keratinocytes; assay: Effect of PDTC on cell proliferation (IC50); format: cell-based; conditions: Homo sapiens, Keratinocyte, Normal cells, read-out: IC50 required to inhibit cellular proliferation or induce apoptosis
Description: as §1

[5] = test system: MCF-10HRas; assay: Effect of PDTC on cell proliferation (IC50); format: cell-based; conditions: Breast carcinoma cell, Breast carcinoma cells, read-out: IC50 required to inhibit cellular proliferation or induce apoptosis
Description: as §1

[6] = test system: MCF-10WT; assay: Effect of PDTC on cell proliferation (IC50); format: cell-based; conditions: Breast carcinoma cell, Breast carcinoma cells, read-out: IC50 required to inhibit cellular proliferation or induce apoptosis
Description: as §1

[7] = test system: MCF-7; assay: Effect of PDTC on cell proliferation (IC50); format: cell-based; conditions: Homo sapiens, MCF7, Breast carcinoma cells, read-out: IC50 required to inhibit cellular proliferation or induce apoptosis
Description: as §1

[8] = test system: MDA MB-468; assay: Effect of PDTC on cell proliferation (IC50); format: cell-based; conditions: Homo sapiens, Breast carcinoma cells, read-out: IC50 required to inhibit cellular proliferation or induce apoptosis
Description: as §1

[9] = test system: MDA-MB231; assay: Effect of PDTC on cell proliferation (IC50); format: cell-based; conditions: Homo sapiens, MDA-MB-231, Breast carcinoma cells, read-out: IC50 required to inhibit cellular proliferation or induce apoptosis
Description: as §1

[10] = test system: N-87; assay: Effect of PDTC on cell proliferation (IC50); format: cell-based; conditions: Gastric carcinoma cells, read-out: IC50 required to inhibit cellular proliferation or induce apoptosis
Description: as §1

[11] = test system: Non-transformed rat intestinal epithelial cells; assay: Effect of PDTC on cell proliferation (IC50); format: cell-based; conditions: Normal cells, read-out: IC50 required to inhibit cellular proliferation or induce apoptosis
Description: as §1

[12] = test system: PANC-1; assay: Effect of PDTC on cell proliferation (IC50); format: cell-based; conditions: Homo sapiens, Pancreatic carcinoma cells, read-out: IC50 required to inhibit cellular proliferation or induce apoptosis
Description: as §1

[13] = test system: Primary colonocytes; assay: Effect of PDTC on cell proliferation (IC50); format: cell-based; conditions: Homo sapiens, Normal cells, read-out: IC50 required to inhibit cellular proliferation or induce apoptosis
Description: as §1

[14] = test system: Primary mammary epithelia; assay: Effect of PDTC on cell proliferation (IC50); format: cell-based; conditions: Homo sapiens, Normal cells, read-out: IC50 required to inhibit cellular proliferation or induce apoptosis
Description: as §1

[15] = test system: Saos-2; assay: Effect of PDTC on cell proliferation (IC50); format: cell-based; conditions: Homo sapiens, Osteosarcoma, read-out: IC50 required to inhibit cellular proliferation or induce apoptosis
Description: as §1

[16] = test system: Primary colonocytes; assay: DNA fragmentation after PDTC treatment; format: cell-based, human; conditions: 70 μM
[17] = test system: Wild Type p53 HCA-7; assay: DNA fragmentation after PDTC treatment; format: cell-based; conditions: 70 μM
[18] = test system: HCT 116; assay: DNA fragmentation after PDTC treatment; format: cell-based, human; conditions: 70 μM
[19] = test system: Mutant p53 HCT 15; assay: DNA fragmentation after PDTC treatment; format: cell-based, human; conditions: 70 μM
[20] = test system: DLD-1; assay: DNA fragmentation after PDTC treatment; format: cell-based; conditions: 70 μM
[21] = test system: DKO-3; assay: DNA fragmentation after PDTC treatment; format: cell-based; conditions: 70 μM
[22] = test system: HCT 116 cells; assay: Soft-agar colony formation (anchorage-independent growth); conditions: Homo sapiens, HCT-116, 240 h, read-out: approximate IC50 in soft agar
Description: (§2) FIG. 1A is a graph of the concentration of PDTC versus soft-agar forming units×10^6 HCT 15 and HCT 116 cells (as a percent of control). […] Soft-agar colony formation was measured by seeding HCT 116 or HCT 15 cells in soft agar supplemented with either medium alone (control), or increasing concentrations of pyrrolidinedithiocarbamate (25–200 μM) or vitamin E (0.1–10 mM). Colonies were scored at the end of 10 days incubation at 37° C. Values are representative of three experiments carried out in quadruplicate.
(§3) HCT 116 and HCT 15 cells were seeded in soft agar as described above containing increasing concentrations of either 5-FU (5×10^−8 to 5×10^−5 M) or doxorubicin (1×10^−9 to 1×10^−6 M), in the presence or absence of pyrrolidinedithiocarbamate (70 μM) or vitamin E (3 mM). Colonies were scored after 10 days and IC50 values were calculated as the concentration of 5-FU or doxorubicin required to reduce basal colony formation by 50% (±s.e.m.). Values are representative of three experiments carried out in quadruplicate.

[23] = test system: HCT 15 cells; assay: as above; conditions: Homo sapiens, HCT-15, 240 h, read-out: approximate IC50 in soft agar
Description: as §2, §3

[24] = test system: HCT 15-derived tumors; assay: HCT 15 tumor xenografts in athymic mice; format: in vivo; conditions: HCT 15-derived tumors, after 3 weeks of single agent treatment, before cross-over
Description: HCT 15-derived tumors were generated as described above. Animals were then treated with pyrrolidinedithiocarbamate, in the presence or absence of 5-FU, for 3 weeks. At this point, treatments were discontinued in animals receiving the combined treatment of pyrrolidinedithiocarbamate and 5-FU for 2 months. All other treatment groups received both 5-FU and pyrrolidinedithiocarbamate for the remaining 3 weeks.
Male athymic Balb/c nu/nu mice were obtained from the Harlan Sprague-Dawley Company at 4–6 weeks of age and were quarantined for at least 2 weeks before the study. […] HCT 116 and HCT 15 CRC cell lines were grown in DMEM supplemented with 10% FBS as described above. Cells were harvested through two consecutive trypsinizations, centrifuged at 300 g for 5 minutes, washed twice, and resuspended in sterile phosphate buffered saline. One ×10^6 cells in 0.2 ml were injected subcutaneously between the scapula of 7- to 10-week-old male nude mice.
Tumor volumes were estimated weekly by measuring the maximal length, width, and height. Once tumors reached a mean size of 120 to 150 mm^3, animals received either weekly i.p. injections of pyrrolidinedithiocarbamate (70 μM) or vitamin E (3 mM), 5-FU (40 mg/kg) or saline, or a combination of pyrrolidinedithiocarbamate or vitamin E and 5-FU or 6 weeks. In cross-over experiments, animals received the above treatments for three weeks (with the exception of vitamin E), and then were crossed-over to either the combination treatment of pyrrolidinedithiocarbamate and 5-FU (saline, pyrrolidinedithiocarbamate or 5-FU alone) or discontinued treatment pyrrolidinedithiocarbamate and 5-FU) for the remaining three weeks of the experiment. […] Tumor volumes were recorded weekly until termination of the study.
Tumor tissues were fixed overnight in 4% (v/v) paraformaldehyde and embedded in paraffin according to standard histological procedures. […] The proliferative index (BrDU) and the apoptotic index (TUNEL) were estimated by the percentage of cells scored under a microscope at 200-fold magnification.

[25] = test system: murine small intestine and the murine colon; conditions: mouse, in vivo

SMILES: S=C(S)N1CCCC1 [PDTC, pyrrolidinedithiocarbamate]
- IC50 [1]: 70 µM
- IC50 [2]: 100 µM
- IC50 [3]: 35 µM
- IC50 [4]: 600 µM
- IC50 [5]: 5 µM
- IC50 [6]: 5 µM
- IC50 [7]: 13 µM
- IC50 [8]: 20 µM
- IC50 [9]: 10 µM
- IC50 [10]: 40 µM
- IC50 [11]: 450 µM
- IC50 [12]: 75 µM
- IC50 [13]: 500 µM
- IC50 [14]: 650 µM
- IC50 [15]: 10 µM
- DNA Fragmentation after PDTC Treatment ([16]; 3 h): 101 ± 10 % Control
- DNA Fragmentation after PDTC Treatment ([16]; 6 h): 109 ± 9 % Control
- DNA Fragmentation after PDTC Treatment ([16]; 12 h): 107 ± 10 % Control
- DNA Fragmentation after PDTC Treatment ([16]; 24 h): 130 ± 16 % Control
- DNA Fragmentation after PDTC Treatment ([17]; 3 h): 111 ± 13 % Control
- DNA Fragmentation after PDTC Treatment ([17]; 6 h): 126 ± 17 % Control
- DNA Fragmentation after PDTC Treatment ([17]; 12 h): 154 ± 19 % Control
- DNA Fragmentation after PDTC Treatment ([17]; 24 h): 302 ± 35 % Control
- DNA Fragmentation after PDTC Treatment ([18]; 3 h): 108 ± 11 % Control
- DNA Fragmentation after PDTC Treatment ([18]; 6 h): 131 ± 21 % Control
- DNA Fragmentation after PDTC Treatment ([18]; 12 h): 198 ± 23 % Control
- DNA Fragmentation after PDTC Treatment ([18]; 24 h): 367 ± 49 % Control
- DNA Fragmentation after PDTC Treatment ([19]; 3 h): 145 ± 12 % Control
- DNA Fragmentation after PDTC Treatment ([19]; 6 h): 259 ± 18 % Control
- DNA Fragmentation after PDTC Treatment ([19]; 12 h): 673 ± 34 % Control
- DNA Fragmentation after PDTC Treatment ([19]; 24 h): 979 ± 34 % Control
- DNA Fragmentation after PDTC Treatment ([20]; 3 h): 213 ± 17 % Control
- DNA Fragmentation after PDTC Treatment ([20]; 6 h): 296 ± 21 % Control
- DNA Fragmentation after PDTC Treatment ([20]; 12 h): 712 ± 34 % Control
- DNA Fragmentation after PDTC Treatment ([20]; 24 h): 876 ± 46 % Control
- DNA Fragmentation after PDTC Treatment ([21]; 3 h): 223 ± 11 % Control
- DNA Fragmentation after PDTC Treatment ([21]; 6 h): 478 ± 16 % Control
- DNA Fragmentation after PDTC Treatment ([21]; 12 h): 896 ± 23 % Control
- DNA Fragmentation after PDTC Treatment ([21]; 24 h): 1116 ± 54 % Control
- IC50 [22]: ~70 µM
- IC50 [23]: ~70 µM
- tumor size [24]: 1325+210 mm^3
- toxicity of 5-FU [25]: substantially reduces the toxicity of 5-FU

Reference: patent publication US7071158B2, “Antioxidant enhancement of therapy for hyperproliferative conditions” (Atherogenics, Inc., priority 1997, dated 2006)
